Results taken from patent publication US5955500A (G. D. Searle & Co., priority 1997, dated 1999).
Where “and” joins values, the source holds several entries; their conditions need not be identical. Identical values can stand only once. Counter-ions that a name gives are not always drawn. Like-named read-outs stand apart in the source and are kept apart here.

Key:
[1] = pH 5, individual replicates; listed as 50, hydrochloride
[2] = tested on: supraventricular tachycardia; conditions: intravenous; cited from earlier work
[3] = tested on: canine heart; conditions: for AH time / Heart rate / Mean arterial pressure: mean ± SE, listed as 50/50S
[4] = 0.1 mg/kg i.v., 0 min, hydrochloride
[5] = 0.1 mg/kg i.v., 1 min, hydrochloride
[6] = 0.1 mg/kg i.v., 2 min, hydrochloride
[7] = 0.1 mg/kg i.v., 3 min, hydrochloride
[8] = 0.1 mg/kg i.v., 4 min, hydrochloride
[9] = 0.1 mg/kg i.v., 5 min, hydrochloride
[10] = 0.2 mg/kg i.v., 0 min, hydrochloride
[11] = 0.2 mg/kg i.v., 1 min, hydrochloride
[12] = 0.2 mg/kg i.v., 2 min, hydrochloride
[13] = 0.2 mg/kg i.v., 3 min, hydrochloride
[14] = 0.2 mg/kg i.v., 4 min, hydrochloride
[15] = 0.2 mg/kg i.v., 5 min, hydrochloride
[16] = 0.4 mg/kg i.v., 0 min, hydrochloride
[17] = 0.4 mg/kg i.v., 1 min, hydrochloride
[18] = 0.4 mg/kg i.v., 2 min, hydrochloride
[19] = 0.4 mg/kg i.v., 3 min, hydrochloride
[20] = 0.4 mg/kg i.v., 4 min, hydrochloride
[21] = 0.4 mg/kg i.v., 5 min, hydrochloride

For `COc1ccc(CCN(C)CCCC(C#N)(c2ccc(OC)c(OC)c2)C(C)C)cc1OC` (racemic) [racemic verapamil, benzeneacetonitrile, α-[3-[[2-(3,4-dimethoxyphenyl)ethyl]methylamino]propyl]-3,4-dimethoxy-α-(1-methylethyl) hydrochloride, reference compound], the Concentration in octanol [1] is given as 6020 ng/mL and 6360 ng/mL and 5830 ng/mL, the Concentration in water [1] is given as 5050 ng/mL and 4800 ng/mL and 4750 ng/mL and the “Rapid and reliable control of supraventricular tachycardia, in words” value [2] is given as “work well”. The AH time [3, 4] was 97 ± 16 ms, the Heart rate [3, 4] was 143 ± 11 beats per min and the Mean arterial pressure [3, 4] was 92 ± 4 mmHg. The AH time [3, 5] was 107 ± 12 ms, the Heart rate [3, 5] was 135 ± 6 beats per min and the Mean arterial pressure [3, 5] was 97 ± 4 mmHg. The AH time [3, 6] was 105 ± 9 ms, the Heart rate [3, 6] was 122 ± 7 beats per min and the Mean arterial pressure [3, 6] was 101 ± 5 mmHg. For the same molecule, the AH time [3, 7] was 106 ± 8 ms, the Heart rate [3, 7] was 118 ± 6 beats per min and the Mean arterial pressure [3, 7] was 102 ± 5 mmHg. It also gave an AH time [3, 8] of 104 ± 7 ms, a Heart rate [3, 8] of 119 ± 7 beats per min and a Mean arterial pressure [3, 8] of 100 ± 4 mmHg. For the same molecule, the AH time [3, 9] was 104 ± 6 ms, the Heart rate [3, 9] was 125 ± 8 beats per min and the Mean arterial pressure [3, 9] was 104 ± 4 mmHg. The AH time [3, 10] was 96 ± 8 ms, the Heart rate [3, 10] was 169 ± 4 beats per min and the Mean arterial pressure [3, 10] was 88 ± 5 mmHg. The AH time [3, 11] was 117 ± 11 ms, the Heart rate [3, 11] was 164 ± 8 beats per min and the Mean arterial pressure [3, 11] was 90 ± 3 mmHg. For the same molecule, the AH time [3, 12] was 112 ± 7 ms, the Heart rate [3, 12] was 149 ± 10 beats per min and the Mean arterial pressure [3, 12] was 101 ± 4 mmHg. For the same molecule, the AH time [3, 13] was 118 ± 9 ms, the Heart rate [3, 13] was 149 ± 10 beats per min and the Mean arterial pressure [3, 13] was 101 ± 6 mmHg. For the same molecule, the AH time [3, 14] was 117 ± 8 ms, the Heart rate [3, 14] was 147 ± 12 beats per min and the Mean arterial pressure [3, 14] was 101 ± 4 mmHg. For the same molecule, the AH time [3, 15] was 124 ± 8 ms, the Heart rate [3, 15] was 147 ± 13 beats per min and the Mean arterial pressure [3, 15] was 100 ± 5 mmHg. The “Occurrence of AV conduction block” value ([3]; 0.2 mg/kg i.v., listed as 50R/50S-verapamil, hydrochloride) was 3 animals, the AH time [3, 16] was 101 ± 10 ms and the Heart rate [3, 16] was 180 ± 11 beats per min. The Mean arterial pressure [3, 16] was 86 ± 8 mmHg, the AH time [3, 17] was 112 ± 10 ms and the Heart rate [3, 17] was 171 ± 7 beats per min. The Mean arterial pressure [3, 17] was 87 ± 8 mmHg, the AH time [3, 18] was 116 ± 5 ms and the Heart rate [3, 18] was 162 ± 3 beats per min. It also gave a Mean arterial pressure [3, 18] of 92 ± 7 mmHg, an AH time [3, 19] of 117 ± 7 ms and a Heart rate [3, 19] of 163 ± 5 beats per min. It also gave a Mean arterial pressure [3, 19] of 97 ± 6 mmHg, an AH time [3, 20] of 119 ± 8 ms and a Heart rate [3, 20] of 162 ± 4 beats per min. For the same molecule, the Mean arterial pressure [3, 20] was 95 ± 8 mmHg, the AH time [3, 21] was 113 ± 5 ms and the Heart rate [3, 21] was 161 ± 9 beats per min. The Mean arterial pressure [3, 21] was 98 ± 6 mmHg, the “Occurrence of second and third degree AV conduction block” value ([3]; 0.4 mg/kg i.v., listed as 50R/50S-verapamil, hydrochloride) was 7 animals and the “Peak effect on HR, in words” value ([3]; dog, in vivo) was “drastic increase in HR”. The “QTc interval compared with 100R-verapamil, in words” value ([3]; dog, in vivo) was “significantly increased compared with 100R-verapamil”, the “Interaction between MAP and HR (multiple linear regression), in words” value ([3]; increase in HR against drop in MAP) was “greatest rate of increase in HR as opposed to a drop in MAP” and the “Sinus node recovery time (SNRT), significance” value ([3]; paced at 200 beats/min) was “significant decrease”.
